In ChEMBL document CHEMBL1149552, “Praziquantel derivatives I: Modification of the aromatic ring” (2007):
Values after ≈ are worked out from the molar mass of the structure shown.

Legend:
Assay type in all cases: functional
Schistosoma mansoni [1] = test: Antischistosomal activity against Schistosoma mansoni assessed as 100% killing of schistosomes
Schistosoma mansoni [2] = test: Antischistosomal activity against Schistosoma mansoni assessed as 100% killing of shcistomes relative to Praziquantel
Schistosoma mansoni [3] = test: Antischistosomal activity against Schistosoma mansoni assessed as complete spastic paralysis
Schistosoma mansoni [4] = test: Antischistosomal activity against Schistosoma mansoni assessed as shcistomes paralysis relative to Praziquantel

| SMILES | MLC (Schistosoma mansoni [1]) [µM] | Activity (Schistosoma mansoni [2]) [%] | Activity (Schistosoma mansoni [3]) [µM] | Activity (Schistosoma mansoni [4]) [%] |
| --- | --- | --- | --- | --- |
| Nc1ccc2c(c1)C1CN(C(=O)C3CCCCC3)CC(=O)N1CC2 (stereo unspecified) | 28 (≈ 9.17 µg/mL) | 10.7 | 10 | 10 |
| Nc1ccc(C(=O)N2CC(=O)N3CCc4ccccc4C3C2)cc1 (stereo unspecified) | 18 (≈ 5.78 µg/mL) | 16.6 | 7 | 14.3 |
| CC(=O)Nc1ccc2c(c1)C1CN(C(=O)C3CCCCC3)CC(=O)N1CC2 (stereo unspecified) | >300 | <1 | >300 | <0.3 |
| O=C(C1CCCCC1)N1CC(=O)N2CCc3ccc([N+](=O)[O-])cc3C2C1 (stereo unspecified) | >300 | <1 | >300 | <0.3 |
| O=C(C1CCC(O)CC1)N1CC(=O)N2CCc3ccccc3C2C1 (stereo unspecified) | 200 (≈ 65.7 µg/mL) | 1.5 | 75 | 1.3 |
| O=C(C1CCCCC1)N1CC(=O)N2CCc3ccccc3C2C1 (stereo unspecified) [PRAZIQUANTEL] | 3 (≈ 0.937 µg/mL) | – | 1 | – |
| Nc1cccc(C(=O)N2CC(=O)N3CCc4ccccc4C3C2)c1 (stereo unspecified) | 12 (≈ 3.86 µg/mL) | 25 | 7 | 14.3 |
